pKi: −log10 of the molar value.
Biological target: PIM1 (Homo sapiens (Human), UniProt P11309)
Test: biochemical
Type: biochemical
Conditions: 20 pM PIM1, 1 μM FAM-peptide, 10 μM ATP, 90 minutes at room temperature; read-out: PIM1 LC3K (KI)

Chain of PIM1 (P11309 whole entry): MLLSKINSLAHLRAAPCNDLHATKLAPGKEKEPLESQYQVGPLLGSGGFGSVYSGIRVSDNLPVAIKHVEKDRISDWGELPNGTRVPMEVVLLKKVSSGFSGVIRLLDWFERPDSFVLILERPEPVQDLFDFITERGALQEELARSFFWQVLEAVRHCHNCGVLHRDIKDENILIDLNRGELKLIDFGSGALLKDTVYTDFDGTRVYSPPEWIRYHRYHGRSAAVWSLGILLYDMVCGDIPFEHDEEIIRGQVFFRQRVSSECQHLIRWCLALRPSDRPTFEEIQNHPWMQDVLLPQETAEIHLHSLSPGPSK

SMILES	pKi
COC(C)c1cc(F)c(-c2nc(C(=O)Nc3cnn(C)c3[C@@H]3CC[C@@H](N)[C@@H](F)CO3)ccc2F)c(F)c1 (stereo partly drawn) [Example 211, N-(5-((2S,5R,6R)-5-amino-6-fluorooxepan-2-yl)-1-methyl-1H-pyrazol-4-yl)-6-(2,6-difluoro-4-(1-methoxyethyl)phenyl)-5-fluoropicolinamide]	10.43
Cn1ncc(NC(=O)c2nc(-c3c(F)cccc3F)sc2N)c1C1C[C@H](N)[C@@H](F)CCO1 (stereo partly drawn) [Example 130, 5-amino-N-(5-((4S,5S)-4-amino-5-fluorooxepan-2-yl)-1-methyl-1H-pyrazol-4-yl)-2-(2,6-difluorophenyl)thiazole-4-carboxamide]	9.45
Cn1ncc(NC(=O)c2nc(C3=CCCC3)sc2N)c1[C@@H]1CC[C@@H](N)[C@H](F)CO1 [Example 333, 5-amino-N-(5-((2S,5R,6S)-5-amino-6-fluorooxepan-2-yl)-1-methyl-1H-pyrazol-4-yl)-2-(cyclopent-1-en-1-yl)thiazole-4-carboxamide]	10.52
Cc1cccc(F)c1-c1nc(C(=O)Nc2cnn(C)c2[C@@H]2CC[C@@H](N)[C@H](F)CO2)cs1 [Example 315, N-(5-((2S,5R,6S)-5-amino-6-fluorooxepan-2-yl)-1-methyl-1H-pyrazol-4-yl)-2-(2-fluoro-6-methylphenyl)thiazole-4-carboxamide]	10.04
CO[C@H]1CO[C@H](c2c(NC(=O)c3nc(-c4cc(C)ccc4F)sc3N)cnn2C)CC[C@H]1N [Example 264, 5-amino-N-(5-((2S,5R,6R)-5-amino-6-methoxyoxepan-2-yl)-1-methyl-1H-pyrazol-4-yl)-2-(2-fluoro-5-methylphenyl)thiazole-4-carboxamide]	10.70
CO[C@H]1CCC(c2c(NC(=O)c3nc(-c4c(F)cccc4F)sc3N)cnn2C)OC[C@@H]1N (stereo partly drawn) [Example 123, 5-amino-N-(5-((5S,6S)-6-amino-5-methoxyoxepan-2-yl)-1-methyl-1H-pyrazol-4-yl)-2-(2,6-difluorophenyl)thiazole-4-carboxamide]	9.90
Cn1ncc(NC(=O)c2ccc(F)c(-c3cccc(F)c3F)n2)c1[C@@H]1CC[C@@H](N)[C@H](F)CO1 [Example 223, N-(5-((2S,5R,6S)-5-amino-6-fluorooxepan-2-yl)-1-methyl-1H-pyrazol-4-yl)-6-(2,3-difluorophenyl)-5-fluoropicolinamide]	10.08
Cn1ncc(NC(=O)c2nc(-c3c(F)cccc3F)sc2N)c1[C@H]1CC[C@H](CN)O1 [Example 171, 5-Amino-N-[5-[(2R,5R)-5-(aminomethyl)tetrahydrofuran-2-yl]-1-methyl-pyrazol-4-yl]-2-(2,6-difluorophenyl)thiazole-4-carboxamide]	10.57
Cn1ncc(NC(=O)c2csc(-c3c(F)ccc(F)c3F)n2)c1[C@@H]1CC[C@@H](N)[C@H](F)CO1 [Example 243, N-(5-((2S,5R,6S)-5-amino-6-fluorooxepan-2-yl)-1-methyl-1H-pyrazol-4-yl)-2-(2,3,6-trifluorophenyl)thiazole-4-carboxamide]	10.33
Cn1ncc(NC(=O)c2csc(-c3c(F)cc(C4(O)COC4)cc3F)n2)c1[C@@H]1CC[C@@H](N)[C@H](F)CO1 [Example 224, N-(5-((2S,5R,6S)-5-amino-6-fluorooxepan-2-yl)-1-methyl-1H-pyrazol-4-yl)-2-(2,6-difluoro-4-(3-hydroxyoxetan-3-yl)phenyl)thiazole-4-carboxamide]	10.46
Cn1ncc(NC(=O)c2nc(-c3c(F)cccc3F)sc2N)c1[C@H]1CC[C@H](N)C(F)(F)CO1 [Example 152]	10.51
Cn1ncc(NC(=O)c2csc(-c3c(F)ccc(F)c3F)n2)c1[C@@H]1CC[C@@H](N)[C@@H](F)CO1 [Example 230, N-(5-((2S,5R,6R)-5-amino-6-fluorooxepan-2-yl)-1-methyl-1H-pyrazol-4-yl)-2-(2,3,6-trifluorophenyl)thiazole-4-carboxamide]	10.51
Cc1cccc(F)c1-c1nc(C(=O)Nc2cnn(C)c2[C@@H]2CC[C@@H](N)[C@H](F)CO2)c(C)s1 [Example 369, N-[5-[(2S,5R,6S)-5-amino-6-fluoro-oxepan-2-yl]-1-methyl-pyrazol-4-yl]-2-(2-fluoro-6-methyl-phenyl)-5-methyl-thiazole-4-carboxamide]	8.44
CC(=O)Nc1ccc(-c2nc(C(=O)Nc3cnn(C)c3[C@@H]3CC[C@@H](N)[C@H](F)CO3)cs2)cn1 [Example 386, 2-(6-acetamido-3-pyridyl)-N-[5-[(2S,5R,6S)-5-amino-6-fluoro-oxepan-2-yl]-1-methyl-pyrazol-4-yl]thiazole-4-carboxamide]	9.41
COCCOc1cc(F)c(-c2nc(C(=O)Nc3cnn(C)c3[C@@H]3CC[C@@H](N)[C@@H](F)CO3)ccc2F)c(F)c1 [Example 189, N-(5-((2S,5R,6R)-5-Amino-6-fluorooxepan-2-yl)-1-methyl-1H-pyrazol-4-yl)-6-(2,6-difluoro-4-(2-methoxyethoxy)phenyl)-5-fluoropicolinamide]	10.60

The next compounds have a higher pKi than those just listed; values first:

pKi	SMILES
10.92	Cn1ncc(NC(=O)c2ccc(F)c(-c3c(F)cc(O)cc3F)n2)c1[C@@H]1CC[C@@H](N)[C@H](F)CO1 [Example 208, N-(5-((2S,5R,6S)-5-amino-6-fluorooxepan-2-yl)-1-methyl-1H-pyrazol-4-yl)-6-(2,6-difluoro-4-hydroxyphenyl)-5-fluoropicolinamide]
10.80	Cn1ncc(NC(=O)c2ccc(F)c(-c3c(F)cc(OCCO)cc3F)n2)c1[C@@H]1CC[C@@H](N)[C@H](F)CO1 [Example 209, N-(5-((2S,5R,6S)-5-Amino-6-fluorooxepan-2-yl)-1-methyl-1H-pyrazol-4-yl)-6-(2,6-difluoro-4-(2-hydroxyethoxy)phenyl)-5-fluoropicolinamide]
10.85	C[C@@H](O)c1cc(F)c(-c2nc(C(=O)Nc3cnn(C)c3[C@@H]3CC[C@@H](N)[C@H](F)CO3)cs2)c(F)c1 [Example 304, N-(5-((2S,5R,6S)-5-amino-6-fluorooxepan-2-yl)-1-methyl-1H-pyrazol-4-yl)-2-(2,6-difluoro-4-((R)-1-hydroxyethyl)phenyl)thiazole-4-carboxamide]
10.89	Cc1ccc(F)c(-c2nc(C(=O)Nc3cnn(C)c3[C@@H]3CC[C@@H](N)[C@H](F)CO3)cs2)c1F [Example 303, N-(5-((2S,5R,6S)-5-amino-6-fluorooxepan-2-yl)-1-methyl-1H-pyrazol-4-yl)-2-(2,6-difluoro-3-methylphenyl)thiazole-4-carboxamide]
10.82	CC[C@]1(CN)CO[C@H](c2c(NC(=O)c3nc(-c4c(F)cccc4F)sc3N)cnn2C)OC1 [Example 173, 5-Amino-N-[5-[5-(aminomethyl)-5-ethyl-1,3-dioxan-2-yl]-1-methyl-pyrazol-4-yl]-2-(2,6-difluorophenyl)thiazole-4-carboxamide]
11.40	Cn1ncc(NC(=O)c2nc(-c3c(F)ccc(F)c3F)sc2N)c1[C@@H]1CC[C@@H](N)[C@@H](F)CO1 [Example 260, 5-amino-N-(5-((2S,5R,6R)-5-amino-6-fluorooxepan-2-yl)-1-methyl-1H-pyrazol-4-yl)-2-(2,3,6-trifluorophenyl)thiazole-4-carboxamide]
11.15	Cc1c(-c2nc(C(=O)Nc3cnn(C)c3[C@@H]3CC[C@@H](N)[C@@H](F)CO3)c(N)s2)cnn1C [Example 255, 5-amino-N-(5-((2S,5R,6R)-5-amino-6-fluorooxepan-2-yl)-1-methyl-1H-pyrazol-4-yl)-2-(1,5-dimethyl-1H-pyrazol-4-yl)thiazole-4-carboxamide]

Source: patent US9328106B2, “Cyclic ether pyrazol-4-yl-heterocyclyl-carboxamide compounds and methods of use” (Genentech, Inc., priority 2012, dated 2016)
